{
  "source": "patent US9062284B2",
  "about": "“Uses and detection of herbicide resistance genes for resistance to aryloxyalkanoate herbicides” (Dow ArgoSciences LLC, priority 2007, dated 2015)",
  "data": [
    {"system": "AAD-2 (v1) transformed T1 Arabidopsis", "test": "not given", "settings": "200 g ae/ha 2,4-D; see PCT/US2005/014737; cited from earlier work", "values": [
      {"smiles": "O=C(O)COc1ccc(Cl)cc1Cl", "note": "[2,4-D, 2,4-dichlorophenoxyacetic acid]", "overall population injury": "about 83%"}
    ]},
    {"target": "T1, AAD-13 (Sphingobium herbicidovorans, UniProt Q700X4)", "T1 sequence (Q700X4 with tags, fused parts or gaps)": "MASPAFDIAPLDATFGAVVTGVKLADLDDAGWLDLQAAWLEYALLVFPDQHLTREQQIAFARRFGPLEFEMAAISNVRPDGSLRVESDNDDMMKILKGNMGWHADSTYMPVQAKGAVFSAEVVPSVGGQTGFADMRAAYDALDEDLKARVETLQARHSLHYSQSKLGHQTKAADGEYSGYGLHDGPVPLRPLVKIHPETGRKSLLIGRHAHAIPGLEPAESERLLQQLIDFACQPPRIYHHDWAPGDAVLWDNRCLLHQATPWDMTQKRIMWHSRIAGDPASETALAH", "test": "not given", "settings": "CNPP as substrate, pH 6.75", "units": {"Km": "µM", "kcat": "s⁻¹"}, "values": [
      {"smiles": "CC(Oc1ccc([N+](=O)[O-])cc1Cl)C(=O)O", "note": "(centres unmarked) [CNPP]", "Km": "31 ± 5.5", "kcat": "0.27 ± 0.0132"}
    ]},
    {"target": "T2, AAD-13 (v2) (Sphingobium herbicidovorans, UniProt Q700X4)", "T2 construct": "His tag (C); made in house; host or cells: E. coli BL-21, pET-26b(+)", "test": "not given", "format": "biochemical", "settings": "substrate 0.5 mM (asterisk); rate as percentage of 2,4-D rate", "source_text": "(§1) In order to test a broad range of substrates, the production of succinate from the breakdown of α-ketoglutarate was detected spectrophotometricly using a protocol based on the method of Luo et. al. (2006) (Anal. Biochem. 353: 69-74). As depicted in FIG. 3, the concomitant breakdown of α-ketoglutarate and the substrate of interest via AAD-13, results in the production of succinate. Succinate is further modified to succinyl-CoA by succinyl-CoA synthetase which consumes ATP and produces ADP. ADP is then consumed by the commonly employed pyruvate kinase/lactate dehydrogenase enzymatic coupling system (Sigma P0294). The resulting conversion of NADH to NAD is monitored spectrophotometrically at 340 nm.\n(§2) Identification of AAD-13 (v2) substrates in vitro was based on enzymatic activity detected during continuous spectrophotometric monitoring of a 0.2 mL reaction volume in a 96 well microtiter plate. Reaction conditions were as follows: 100 mM MOPS pH 7.0, 0.4 mM NADH, 0.4 mM ATP, 0.4 mM CoA, 1 mM PEP, 10 mM MgCl2, 0.1 mM […] (solubilized in HCl), and 0.1 mM ascorbate, 1 mM α-ketoglutarate and sufficient AAD-13 (v2) to produce an observable rate in the presence of 2,4-D. Coupling enzymes (SCS/PK/LDH) were adjusted by batch to ensure adequate coupling, and potential substrates were generally assayed at 1 mM. Alterations in substrate concentrations were made as needed to adjust for solubility. Reactions were initiated by either the addition of AAD-13 (v2) or potential substrate. The rate of substrate independent conversion of α-ketoglutarate to succinate by AAD was monitored under the above assay conditions and subtracted from the observed reaction rates. […] Additionally, propionate compounds were checked for pyruvate contamination by spectrophotometrically monitoring the consumption of NADH in the presence of compound and PK/LDH.\n(§3) Reaction rates are reported as a percentage of the 2,4-D reaction rate obtained in the same sample set. […] It should be noted that faster rates can be more difficult to accurately compare depending on the percentage of available substrate consumed. […] As a result, highly efficient substrates will be properly grouped when compared to low efficiency substrates. Within the grouping of highly efficient substrates however, compounds may not be quantitatively separated by a screen using single rates of substrate and AAD.", "values": [
      {"smiles": "O=C(O)COc1ccc(Cl)c2cccnc12", "note": "[compound 204558]", "% of 24D activity": "Not Detected"},
      {"smiles": "O=C(O)c1cc2cc([N+](=O)[O-])ccc2o1", "note": "[compound 238166]", "% of 24D activity": "Not Detected"},
      {"smiles": "O=C(O)c1cc2cc(Cl)ccc2o1", "note": "[compound 11077347]", "% of 24D activity": "Not Detected"},
      {"smiles": "O=C(O)c1cc2cc(Cl)cc(Cl)c2o1", "note": "[compound 11077344]", "% of 24D activity": "Not Detected"},
      {"smiles": "O=C(O)COc1ccc(C(=O)c2ccc(Cl)cc2)c(Cl)c1Cl", "note": "[compound 761310]", "% of 24D activity": "Not Detected"}
    ]},
    {"target": "T2, AAD-13 (v2)", "test": "not given", "format": "biochemical", "settings": "substrate 1 mM; rate as percentage of 2,4-D rate in same sample set; propionate rates divided by two", "source_text": "as §1, §2, §3", "values": [
      {"smiles": "O=C(O)/C=C\\c1ccccc1Cl", "note": "[compound 11453845]", "% of 24D activity": "13%"},
      {"smiles": "O=C(O)COc1ccc(Cl)cc1Cl", "note": "[2,4-D, 2,4-dichlorophenoxyacetic acid]", "% of 24D activity": "100%"},
      {"smiles": "CC(Oc1nc(F)c(Cl)c(N)c1Cl)C(=O)O", "note": "(stereo not drawn) [alpha methyl floroxypyr]", "% of 24D activity": "43%"},
      {"smiles": "CCCC(Oc1cc(Cl)c(Cl)cc1Cl)C(=O)O", "note": "(centres unmarked) [compound 188495]", "% of 24D activity": "19%"},
      {"smiles": "CC(Oc1nn(-c2ccccc2)c(-c2ccccc2)c1Br)C(=O)O", "note": "(centres unmarked) [compound 657339]", "% of 24D activity": "5%"},
      {"smiles": "O=C(O)COC(c1ccccc1)C(F)(F)F", "note": "(centres unmarked) [compound 470901]", "% of 24D activity": "30%"},
      {"smiles": "O=C(O)COc1nc(F)c(Cl)cc1Cl", "note": "[compound 93833]", "% of 24D activity": "33%"},
      {"smiles": "O=C(O)c1cc2cc(Br)cc(Br)c2o1", "note": "[compound 198167]", "% of 24D activity": "Not Detected"},
      {"smiles": "O=C(O)COCc1ccc(Cl)cc1", "note": "[compound 475726]", "% of 24D activity": "112%"},
      {"smiles": "O=C(O)COCc1ccccc1", "note": "[compound 93116]", "% of 24D activity": "128%"},
      {"smiles": "CC(Oc1ncc(Cl)cc1Cl)C(=O)O", "note": "(centres unmarked) [compound 66357]", "% of 24D activity": "24%"},
      {"smiles": "CC(Oc1nn(-c2ccccc2)c(-c2ccccc2)c1Cl)C(=O)O", "note": "(centres unmarked) [compound 657338]", "% of 24D activity": "5%"},
      {"smiles": "CC(Oc1ccc(C(=O)c2ccccc2)cc1)C(=O)O", "note": "(centres unmarked) [compound 66732]", "% of 24D activity": ">100%"},
      {"smiles": "CC(Oc1ccc(C(=O)c2ccc(Cl)cc2)cc1)C(=O)O", "note": "(centres unmarked) [compound 8563]", "% of 24D activity": "64%"},
      {"smiles": "O=C(O)CCCOc1ccc(Cl)cc1Cl", "note": "[24DB]", "% of 24D activity": "2%"},
      {"smiles": "O=C(O)COc1cc(N2C(=O)C3=C(CCCC3)C2=O)c(F)cc1Cl", "note": "[compound 11213586]", "% of 24D activity": "2%"},
      {"smiles": "CC(Oc1ccc(Oc2ccc(C(F)(F)F)cn2)cc1)C(=O)O", "note": "(centres unmarked) [fluazifiop]", "% of 24D activity": "~50%"},
      {"smiles": "O=C(O)/C=C/c1ccccc1Cl", "note": "[compound 187507]", "% of 24D activity": "10%"},
      {"smiles": "C=C(C)CCOCC(=O)O", "note": "[compound 571320]", "% of 24D activity": "39%"},
      {"smiles": "CC(Oc1ccc(Cl)cc1Cl)C(=O)O", "note": "(centres unmarked) [r,s dichlorprop, dichlorprop]", "% of 24D activity": "195%"},
      {"smiles": "O=C(O)COc1ccc(F)cc1Cl", "note": "[compound 124988]", "% of 24D activity": "44%"},
      {"smiles": "O=C(O)COc1ccc(C(=O)c2ccccc2)cc1", "note": "[compound 193908]", "% of 24D activity": "56%"},
      {"smiles": "Nc1c(Cl)ccc(OCC(=O)O)c1Cl", "note": "[3-amino 24D]", "% of 24D activity": "151%"},
      {"smiles": "CC(Oc1ccc(Cl)c(N)c1Cl)C(=O)O", "note": "(centres unmarked) [compound 11113675]", "% of 24D activity": "113%"},
      {"smiles": "C[C@@H](Oc1ccc(Oc2nc3ccc(Cl)cc3o2)cc1)C(=O)O", "note": "[R-fenoxaprop]", "% of 24D activity": "2%"},
      {"smiles": "CC(Oc1nc(F)c(Cl)cc1Cl)C(=O)O", "note": "(centres unmarked) [compound 91767]", "% of 24D activity": "88%"},
      {"smiles": "CC(Oc1ccc(Oc2ccc(Cl)cc2Cl)cc1)C(=O)O", "note": "(centres unmarked) [diclofop]", "% of 24D activity": ">100%"},
      {"smiles": "CCCCOC(C)C(=O)O", "note": "(centres unmarked) [compound 191716]", "% of 24D activity": "66%"},
      {"smiles": "CC(Oc1ccc(F)cc1Cl)C(=O)O", "note": "(centres unmarked) [compound 83293]", "% of 24D activity": "106%"},
      {"smiles": "CC(OCc1ccccc1)C(=O)O", "note": "(centres unmarked) [compound 118942]", "% of 24D activity": "46%"},
      {"smiles": "Cc1cc(Cl)ccc1OC(C)C(=O)O", "note": "(centres unmarked) [Mecoprop]", "% of 24D activity": "169%"},
      {"smiles": "C[C@H](Oc1ccc(Cl)cc1Cl)C(=O)O", "note": "[S-dichlorprop]", "% of 24D activity": "233%"}
    ]},
    {"system": "AAD-13 (v1) transformed T1 Arabidopsis", "test": "Postemergence herbicide response of AAD-13 (v1) T1 Arabidopsis", "format": "in vivo, Arabidopsis thaliana", "settings": "2,240 g ae/ha 2,4-D", "procedure": "Seven days after planting (DAP) and again 11 DAP, T1 plants (cotyledon and 2-4-lf stage, respectively) were sprayed with a 0.2% solution of Liberty herbicide (200 g ai/L glufosinate, Bayer Crop Sciences, Kansas City, Mo.) at a spray volume of 10 ml/tray (703 L/ha) using a DeVilbiss compressed air spray tip to deliver an effective rate of 280 g ai/ha glufosinate per application. Survivors (plants actively growing) were identified 4-7 days after the final spraying and transplanted individually into 3-inch pots prepared with potting media (Metro Mix 360). Transplanted plants were covered with humidity domes for 3-4 days and placed in a 22° C. growth chamber as before or moved to directly to the greenhouse. Domes were subsequently removed and plants reared in the greenhouse (22±5° C., 50±30% RH, 14 h light:10 dark, minimum 500 μE/m^2s^1 natural+supplemental light) at least 1 day prior to testing for the ability of AAD-13 (v1) to provide phenoxy auxin herbicide resistance.\nT1 plants were then randomly assigned to various rates of 2,4-D. For Arabidopsis, 50 g ae/ha 2,4-D is an effective dose to distinguish sensitive plants from ones with meaningful levels of resistance. Elevated rates were also applied to determine relative levels of resistance (280, 560, 1120, or 2240 g ae/ha). Tables 11 and 12 show comparisons drawn to an aryloxyalkanoate herbicide resistance gene (AAD-12 (v1)) previously described in PCT/US2006/042133.\nAll auxin herbicide applications were made using the DeVilbiss sprayer as described above to apply 703 L/ha spray volume (0.4 ml solution/3-inch pot) or applied by track sprayer in a 187 L/ha spray volume. 2,4-D used was either technical grade (Sigma, St. Louis, Mo.) dissolved in DMSO and diluted in water (<1% DMSO final concentration) or the commercial dimethylamine salt formulation (456 g ae/L, NuFarm, St Joseph, Mo.). Dichlorprop used was commercial grade formulated as potassium salt of R-dichlorprop (600 g ai/L, AH Marks). As herbicide rates increased beyond 800 g ae/ha, the pH of the spray solution became exceedingly acidic, burning the leaves of young, tender Arabidopsis plants and complicating evaluation of the primary effects of the herbicides.\nThe first Arabidopsis transformations were conducted using AAD-13 (v1) (plant optimized gene). T1 transformants were first selected from the background of untransformed seed using a glufosinate selection scheme. Over 160,000 T1 seed were screened and 238 glufosinate resistant plants were identified (PAT gene), equating to a transformation/selection frequency of 0.15% which lies in the normal range of selection frequency of constructs where PAT+Liberty are used for selection. T1 plants selected above were subsequently transplanted to individual pots and sprayed with various rates of commercial aryloxyalkanoate herbicides. Table 11 compares the response of AAD-13 (v1) and control genes to impart 2,4-D resistance to Arabidopsis T1 transformants. Response is presented in terms of % visual injury 2 WAT. […] An arithmetic mean and standard deviation is presented for each treatment. The range in individual response is also indicated in the last column for each rate and transformation. PAT/Cry1F-transformed Arabidopsis served as an auxin-sensitive transformed control. The AAD-13 (v1) gene imparted herbicide resistance to individual T1 Arabidopsis plants. Within a given treatment, the level of plant response varied greatly and can be attributed to the fact each plant represents an independent transformation event. Of important note, at each 2,4-D rate tested, there were individuals that were unaffected while some were severely affected. […] At high rates the spray solution becomes highly acidic unless buffered therefore some of the injury may be attributed to the acidity of the spray solution. Arabidopsis grown mostly in the growth chamber has a very thin cuticle and severe burning effects can complicate testing at these elevated rates. […]", "values": [
      {"smiles": "O=C(O)COc1ccc(Cl)cc1Cl", "note": "[2,4-D, 2,4-dichlorophenoxyacetic acid]", "population injury average": "about 15%"}
    ]}
  ]
}
